Data as given in US6699459B2, “Methods of treating lung inflammation” (The Board of Regents of the University of Texas System, priority 2001, dated 2004).

How the values were obtained:
Type in all cases: cell-based, human
STAT-1 = experiment: Western blot of phosphorylated and total nuclear STAT-1 in RSV-infected A549 cells; conditions: nuclear proteins, 400 μM
Method: Western Immunoblot. Nuclear proteins were prepared as previously described, fractionated by SDS-PAGE and transferred to PVDF membrane (20). Membranes were blocked with 5% albumin in TBS-Tween and incubated overnight with antibody recognizing the tyrosine phosphorylated form of STAT-1 and STAT-3 (Santa Cruz Biotech, Santa Cruz, Calif.). Membranes were stripped and reprobed with antibodies to STAT-1 and STAT-3 (Santa Cruz Biotech, Santa Cruz, Calif.). For secondary detection, a horseradish-coupled anti-rabbit or anti-mouse antibody was used (Santa Cruz Biotech, Santa Cruz, Calif.) in the enhanced chemiluminescence assay (Amersham Life Science, Arlington Heights, Ill.).

NF-κB = experiment: RSV-induced NF-κB nuclear translocation and DNA-binding in A549 cells; conditions: data not shown
ROS = experiment: H2O2-induced ROS production in A549 cells (DCF oxidation); conditions: 200 μM H2O2, 400 μM BHA
Method: Assesment of intracellular ROS generation. A549 cells were grown in 96-well tissue culture plates and infected with RSV, at 0.1, 0.5 and 1 multiplicity of infection (MOI). At different times post-infection, cells were washed with Hank's Balanced Salt Solution (HBSS) and loaded with 10 μM 2,7 dichlorofluorescein diacetate (DCF-DA) in HBSS medium containing 25 mM HEPES, pH 7.4, for 30 minutes at 37° C. The cells were then washed twice and fluorescence intensity was determined at 485 nm excitation and 590 nm emission, using an automated fluorescence reader (Flurocount, Hewlett-Packard Instruments, IL). For the experiments in which H2O2 was used as a stimulus for ROS production, cells were preloaded with […] DCF-DA for 30 minutes, washed and then fluorescence intensity was measured at different times following addition of H2O2. Measurements were performed in triplicate and results expressed as fluorescence mean±S.D. of n=3 independent experiments.

RANTES [1] = experiment: RSV-induced RANTES secretion in SAE cells (ELISA)
Method: (§1) Cell culture and infection of epithelial cells with RSV. A549, human alveolar type II-like epithelial cells (ATCC, Manassas, Va.), were maintained in F12K medium containing 10% (v/v) fetal bovine serum (FBS), 10 mM glutamine, 100 IU/ml penicillin and 100 μg/ml streptomycin. Small alveolar epithelial cells (SAE) were obtained from Clonetics (San Diego, Calif.) and grown according to the company instructions. Cell monolayers were infected with RSV at multiplicity of infection (MOI) of 1 (unless otherwise stated), as described (17). An equivalent amount of a 20% sucrose solution was added to uninfected A549 cells, as a control. For the antioxidant experiments, cells were pretreated with the antioxidants for one hour and then infected in the presence of the antioxidants. Since BHA was diluted in ethanol, equal amounts of ethanol were added to untreated cells, as a control. Total number of cells, cell viability and viral replication, following antioxidant treatment, were measured by trypan blue exclusion and by plaque assay, respectively. RANTES ELISA. Immunoreactive RANTES was quantitated by a double antibody ELISA kit (DuoSet, R&D Systems, Minneapolis, Minn.) following the manufacturer's protocol.

IRF-3 [2] = experiment: Microaffinity isolation/Western blot for IRF-3 bound to RANTES ISRE; conditions: nuclear extracts, RSV 12 hours
Method: Microaffinity isolation assay. Microaffinity purification of proteins binding to the RANTES ISRE was performed using a two-step biotinylated DNA-streptavidin capture assay (20). In this assay, duplex oligonucleotides are chemically synthesized containing 5′ biotin (Bt) on a flexible linker (Genosys, the Woodlands, TX). Four hundred micrograms of 12 hours-infected A549 cells nuclear extracts were incubated at 4° C. for 30 minutes with 50 pmoles of Bt ISRE, in the absence or presence of 10 fold molar excess of non-biotinylated ISRE wild type (WT) or mutated (MUT). The binding buffer contained 8 μg poly dI/dC (as nonspecific competitor) and 5% (v/v) glycerol, 12 mM HEPES, 80 mM NaCl, 5 mM DTT, 5 mM Mg2Cl, 0.5 mM EDTA. One hundred μl of a 50% slurry of pre-washed streptavidin-agarose beads was then added to the sample, and incubated at 4° C. for an additional 20 minutes with gentle rocking. Pellets were washed twice with 500 μl binding buffer, and the washed pellets were resuspended in 100 μl 1×SDS-PAGE buffer, boiled and fractionated on a 10% SDS-polyacrylamide gel. After electrophoresis separation, proteins were transferred to polyvinylidene difluoride (PVDF) membrane for Western blot analysis.
Western Immunoblot. Total cell lysates and cytoplasmic and nuclear proteins were prepared as previously described, fractionated by SDS-PAGE and transferred to PVDF membrane (20). […]

IRF-1 GAS = experiment: EMSA of IRF-1 GAS binding complexes, nuclear extracts of RSV-infected A549 cells; conditions: RSV 6 hours, 400 μM
Method: Electrophoretic mobility shift assay (EMSA): Nuclear extracts of uninfected and infected A549 cells were prepared using hypotonic/nonionic detergent lysis, as previously described (20). Proteins were normalized by protein assay (Protein Reagent, Bio-Rad, Hercules, Calif.) and used to bind to a duplex oligonucleotide corresponding to the IRF-1 gamma interferon activated sequence (GAS) and IRF-7 ISRE, whose sequences are shown below.
DNA-binding reactions contained 10-15 μg nuclear proteins, 5% glycerol, 12 mM HEPES, 80 mM NaCl, 5 mM DTT, 5 mM Mg2Cl, 0.5 mM EDTA, 1 μg of poly dI-dC and 40,000 cpm of ^32P-labeled double-stranded oligonucleotide in a total volume of 20 μl. The nuclear proteins were incubated with the probe for 15 minutes at room temperature and then fractionated by 4% nondenaturing polyacrylamide gels (PAGE) in 0.5× TBE buffer (22 mM Tris-HCl, 22 mM boric acid, 0.25 MM EDTA, pH 8), at 120 volts. After electrophoretic separation, gels were dried and exposed for autoradiography using Kodak XAR film at −70° C. using intensifying screens. In the gel mobility supershift, commercial antibodies against specific transcription factors were added to the binding reactions and incubated on ice for one hour prior to fractionation on 6% PAGE.

IRF-3 [3] = experiment: Western blot of nuclear IRF-3 in RSV-infected A549 cells
Method: Western Immunoblot. Total cell lysates and cytoplasmic and nuclear proteins were prepared as previously described, fractionated by SDS-PAGE and transferred to PVDF membrane (20). Membranes were blocked with 5% albumin in TBS-Tween and incubated overnight with a rabbit polyclonal antibody to IRF-1, -3 and -7 (Santa Cruz Biotech, Santa Cruz, Calif.). For secondary detection, a horseradish-coupled anti-rabbit or anti-mouse antibody was used in the enhanced chemiluminescence assay (Amersham Pharmacia Biotec, Arlington Heights, Ill.).

RANTES [4] = experiment: RSV-induced RANTES secretion in A549 cells (ELISA); conditions: A549 cells
Method: as §1

With `COc1ccc(O)c(C(C)(C)C)c1` [BHA, butylated hydroxyanisol] the “RSV-induced STAT-1 phosphorylation” value (STAT-1) was “completely blocked”, the “RSV-inducible nuclear STAT-1 form” value (STAT-1) was “disappears” and the “nuclear STAT-1 form present in uninfected and infected cells” value (STAT-1) was “not affected”. For the same compound, the “RSV-induced NF-κB nuclear translocation and DNA-binding” value (NF-κB) was “did not affect”, the “H2O2-induced ROS production” value (ROS) was “almost completely inhibited” and the “effectiveness in reducing RSV-induced RANTES secretion, compared among the antioxidants” value (RANTES [1]) was “most effective”. The “RSV-induced RANTES production” value (RANTES [1]; 400 μM, 24 hours, ELISA) was “significantly reduced”, the “IRF-3 binding to RANTES ISRE” value (IRF-3 [2]) was “almost completely abolished” and the “RSV-induced STAT binding to the IRF-1 GAS” value (IRF-1 GAS) was “completely abolished”. The “the other RSV-inducible nuclear form of IRF-3” value (IRF-3 [3]) was “not affected”, the “effectiveness in reducing RSV-induced RANTES secretion, compared among the antioxidants” value (RANTES [4]) was “most effective” and the “RSV-induced RANTES production” value (RANTES [4]; 400 μM, 24 hours, ELISA) was “significantly block”.
